Reference: publication PMC9784403 (Pharmaceuticals, 2022)
Several values for one entry are separate records, joined by “and”; a condition that tells them apart may be missing. Equal entries are not always repeated.

What was measured:
[1] = molecular target: T1, σ1R (Cavia porcellus, UniProt Q60492); experiment: σ1R competitive binding assay with [3H](+)-pentazocine; details: [3H](+)-pentazocine 5 nM; Guinea pig brain membrane; 90 min at 37 °C
T1 construct: 100 μg of the brain membrane from male Guinea pigs; from tissue; host or cells: brain membranes of male guinea pigs
Source text: For the σ1R assay, [^3H]Pentazocine (Perkin Elmer, Boston, MA, USA) was used as the radioligand to define the σ1R binding affinity of the test compounds, and the protocol followed the references published before with minor modification. […] Afterward, the filter paper collection, signal counting procedure, and data analysis were in line with the study of [^3H]DTG mentioned above.

[2] = molecular target: T2, σ2R/TMEM97 (Rattus norvegicus, UniProt Q5U3Y7); experiment: Competitive receptor binding assay with [125I]RHM-4
T2 sequence (Q5U3Y7 1-176): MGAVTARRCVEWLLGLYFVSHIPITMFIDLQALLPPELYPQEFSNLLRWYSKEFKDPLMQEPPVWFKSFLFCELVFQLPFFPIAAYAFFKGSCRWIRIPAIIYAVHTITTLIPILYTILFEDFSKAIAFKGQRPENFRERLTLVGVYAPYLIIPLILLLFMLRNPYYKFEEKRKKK
Procedure: Briefly, the livers of female SD rats (Rockland, ME, USA) were dissected and homogenized using a Wheaton overhead stirrer (120 Vac Overhead Stirrer, Millville, NJ, USA) in 10 mL/g tissue weight of ice-cold 10mM Tris-HCl/0.32M Sucrose, pH 7.4. The crude homogenate was centrifuged for 10 min at 1000× g at 4 °C, the pellets were discarded, and the supernatant was further centrifuged at 31,000× g for 20 min at 4 °C. The supernatant was discarded, and the pellet was resuspended in 3 mL/g of ice-cold 10 mM Tris-HCl/0.32M sucrose, pH 7.4, and centrifuged again at 31,000× g for 20 min at 4 °C. After centrifugation, the pellets were resuspended in 1 mL of 50mM Tris-HCl, pH 7.4, and stored at −80 °C.
The inhibition constant [14] values of the tested ligands were determined using the Cheng and Prussoff equation [35], and the mean Ki values ± SEM were reported for at least three independent experiments.

[3] = molecular target: T2, σ2R/TMEM97; experiment: Competitive receptor binding assay with [3H]DTG (σ1R masked with (+)-pentazocine)
Procedure: After incubation, the bound ligands were filtered using an M-24 Brandel filtration system (Brandel, Gaithersburg, MD, USA), collected on glass fiber paper (Whatman grade 934-AH, GE Healthcare Bio-Sciences, Pittsburgh, PA, USA), and counted using a MicroBeta2 Microplate counter 2450 (Perkin Elmer, Boston, MA, USA) or Wizard2 Automatic Gamma Counter 2470 (Perkin Elmer, Boston, MA, USA). The inhibition constant [14] values of the tested ligands were determined using the Cheng and Prussoff equation [35], and the mean Ki values ± SEM were reported for at least three independent experiments.

[4] = tested on: TMEM97-knocked out HeLa cells; parameters: method as in PMID 30443021; details: cited from earlier work
[5] = molecular target: T2, σ2R/TMEM97; assay type: binding; parameters: from tissue; host or cells: liver membranes of Sprague-Dawley rats
Procedure: All Kd and Bmax values were calculated via a nonlinear regression method using Prism, and the protein concentrations were determined using Lowry et al.’s method with BSA as the standard.

T1 sequence (Q60492 whole entry): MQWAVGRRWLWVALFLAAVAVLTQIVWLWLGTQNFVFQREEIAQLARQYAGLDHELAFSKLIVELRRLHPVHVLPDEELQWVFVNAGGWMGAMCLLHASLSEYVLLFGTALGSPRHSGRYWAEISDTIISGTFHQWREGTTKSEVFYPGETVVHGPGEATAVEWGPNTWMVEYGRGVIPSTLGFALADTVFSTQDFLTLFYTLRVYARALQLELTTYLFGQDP

SMILES | Ki [1] [nM] | Ki [2] [nM] | Ki [3] [nM] | other results
COc1cc2c(cc1OC)CN(CCCCc1cc(-c3ccc(F)cc3)no1)CC2 [compound 4] | 800 ± 23 | 0.05 ± 0.01 | 0.6 ± 0.3 | 
COc1cc2c(cc1OC)CN(CCCCNC(=O)c1cc([125I])cc(OC)c1OC)CC2 [[^125I]RHM-4] |  |  |  | specific binding after knocking out TMEM97 [4]: completely eliminated; Kd ([5]; SD rat liver membranes, saturation binding, 100 nM (+)-pentazocine added for [3H]DTG, n = 3): 0.2 nM; Bmax (binding capacity) ([5]; SD rat liver membranes, saturation binding, n = 3): 3894 ± 50 fmol/mg and 3894 ± 90 fmol/mg; fold higher σ2R/TMEM97 affinity than that of [3H]DTG ([5]; ratio of binding affinities of the two radioligands): ~ 50 fold
CCCCNC(=O)c1cc(C)ccc1OCCF [compound 1] | 1310 ± 87 | > 10000 | > 10000 | 
CCCCN1CCc2cc(OC)c(OC)cc2C1 [compound 2] | 38 ± 3.3 | 7 ± 3.9 | 10.4 ± 3.4 | 
COc1ccc(C)cc1NC(=O)OC1CC2CCCC(C1)N2CCCCCCN (centres unmarked) [SV119, reference compound] |  | 35 ± 4 | 44.3 ± 7.3 | 
Cc1ccc2c(c1)C1CN(C)CCC1N2C(=O)CSc1nnnn1-c1ccc(Cl)cc1 (centres unmarked) [AG-205, reference compound] |  | 571 ± 82.1 | 807 ± 238 | 
COc1cccc2c1CCCC2CCCN1CCN(C2CCCCC2)CC1 (centres unmarked) [PB-28, reference compound] |  | 0.1 |  | 
COc1cc2c(cc1OC)CN(CCCCc1cc(-c3cc(C)ccc3OCCF)no1)CC2 [compound 3] | 715 ± 46 | 0.24 ± 0.02 | 2.3 ± 0.4 | 
C=CCN(C)CCCCCCOc1ccc(C(=O)c2ccc(Br)cc2)c(F)c1 [Ro 48-8071, reference compound] |  | 73 ± 32.7 | 370 ± 230 | 
COc1cc2c(cc1OC)CN(CCCCNC(=O)c1cc(I)cc(OC)c1OC)CC2 [RHM-4] |  | 0.2 ± 0.1 | 11.7 ± 2.4 | fold increase of σ2R/TMEM97 affinity by combination of fragments 1 and 2 ([2]; RHM-4 versus fragments 1 and 2): approximately 10 fold
COc1cc2c(cc1OC)CN(CCc1ccc(NC(=O)c3cccc4c(=O)c5cccc(OC)c5[nH]c34)cc1)CC2 [Elacridar, reference compound] |  | 0.9 ± 0.3 | 11.7 ± 0.7 | 
Cc1ccccc1NC(=N)Nc1ccccc1C [[^3H]DTG, reference compound] |  |  |  | Kd ([4]; read-out: Kd of retained low-affinity binding site): ~300 nM
